How the values were obtained:
HPK1 protein [1] = target: T1, HPK1 protein (Homo sapiens, UniProt Q92918); assay: HPK1 protein degradation in human PBMC (western blot); type: cell-based; conditions: 18 h incubation
T1 construct: Frozen human PBMC were purchased from Shanghai OribioTech; host or cells: human PBMC
Protocol: HPK1 protein degradation in human PBMC: Frozen human PBMC were purchased from Shanghai OribioTech and recovered with culture medium (RMPI1640) prior to use. The cells were then incubated with a variety of concentrations of compound. After incubation for 18 h, the cells were collected and lysed. The protein concentration was determined by BCA protein assay kit from Thermo (23227). The HPK1 protein level was determined by western blots, using anti-human HPK1 polyclonal antibody from CST (4472S). Proteins were loaded into each well of the pre-casting gels and subjected to electrophoretic separation by SDS-PAGE. The protein resolved by SDS-PAGE were transferred to PVDF, blocked by 5% skim milk, and probed with anti-human HPK1 antibody or β-actin antibody from CST (3700S), using standard western blotting procedure.
T1 sequence (Q92918 whole entry): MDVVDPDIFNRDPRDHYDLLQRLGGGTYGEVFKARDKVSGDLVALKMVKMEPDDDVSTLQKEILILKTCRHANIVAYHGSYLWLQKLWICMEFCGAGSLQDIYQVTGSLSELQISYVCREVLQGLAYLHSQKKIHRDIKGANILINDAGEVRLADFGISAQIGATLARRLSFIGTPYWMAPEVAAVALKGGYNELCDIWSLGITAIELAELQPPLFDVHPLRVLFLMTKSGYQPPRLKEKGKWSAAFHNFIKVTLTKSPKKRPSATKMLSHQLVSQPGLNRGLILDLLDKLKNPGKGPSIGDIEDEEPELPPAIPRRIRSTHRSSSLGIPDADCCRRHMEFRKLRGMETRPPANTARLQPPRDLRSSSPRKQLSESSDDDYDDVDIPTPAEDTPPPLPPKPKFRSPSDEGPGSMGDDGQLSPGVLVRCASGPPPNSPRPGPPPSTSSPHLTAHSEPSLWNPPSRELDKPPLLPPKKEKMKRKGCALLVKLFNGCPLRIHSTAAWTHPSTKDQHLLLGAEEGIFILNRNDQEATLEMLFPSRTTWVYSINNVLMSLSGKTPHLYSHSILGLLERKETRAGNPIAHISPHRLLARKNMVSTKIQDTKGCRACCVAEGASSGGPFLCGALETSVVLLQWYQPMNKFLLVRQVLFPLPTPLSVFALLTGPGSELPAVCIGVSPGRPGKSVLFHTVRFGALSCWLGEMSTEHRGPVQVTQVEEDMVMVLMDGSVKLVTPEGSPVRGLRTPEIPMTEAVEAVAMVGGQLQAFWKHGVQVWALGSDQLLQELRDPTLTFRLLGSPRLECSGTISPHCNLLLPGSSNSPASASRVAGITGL

HPK1 p-SLP-76 = HPK1 p-SLP-76 inhibition assay in human PBMC (HTRF); type: cell-based; conditions: 6 h compound, anti-CD3 stimulation 20 min
Procedure, shortened: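 Human PBMC starved overnight in 0.5% FBS, treated with compound 6 h at 37° C, then stimulated with anti-CD3 (10 ug/mL final) for 20 min. Lysates analysed for phospho-SLP76 by HTRF after overnight detection-antibody incubation at 25° C.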

HPK1 protein [2] = target: T2, HPK1 protein (Homo sapiens, UniProt Q92918); assay: HPK1 enzyme inhibition assay (ADP-Glo); type: biochemical; conditions: MBP substrate, ATP, ADP-Glo readout
T2 construct: purchased Signal Chem M23-11G-10
T2 sequence (Q92918 1-346 limits assumed): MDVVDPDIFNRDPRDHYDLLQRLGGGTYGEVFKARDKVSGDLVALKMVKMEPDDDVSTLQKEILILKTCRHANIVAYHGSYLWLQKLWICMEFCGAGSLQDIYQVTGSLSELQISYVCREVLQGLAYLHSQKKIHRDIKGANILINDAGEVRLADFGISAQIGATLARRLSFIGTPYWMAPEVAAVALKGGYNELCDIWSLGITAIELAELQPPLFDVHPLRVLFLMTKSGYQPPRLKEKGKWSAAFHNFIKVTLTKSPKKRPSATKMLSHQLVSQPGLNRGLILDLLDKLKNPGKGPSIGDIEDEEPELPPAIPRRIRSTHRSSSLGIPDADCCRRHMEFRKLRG
Procedure, shortened: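 Recombinant human HPK1 preincubated with compound 60 min at 25 °C, then reaction with MBP (0.2 ug/ul, 2× stock) and ATP (20 μM, 2× stock) 60 min at 25 °C. ADP formed detected by ADP-Glo after ATP depletion and conversion to ATP; IC50 calculated from signal.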

HPK1 protein [3] = target: T3, HPK1 protein (Mus musculus, UniProt P70218); assay: HPK1 protein degradation in mouse pan T cell (western blot); type: cell-based; conditions: 18 h incubation
T3 construct: the CD3+ T cell population was isolated from spleenocytes of mice; endogenous in cells; host or cells: primary mouse splenic CD3+ (pan) T cells
T3 sequence (P70218 1-827): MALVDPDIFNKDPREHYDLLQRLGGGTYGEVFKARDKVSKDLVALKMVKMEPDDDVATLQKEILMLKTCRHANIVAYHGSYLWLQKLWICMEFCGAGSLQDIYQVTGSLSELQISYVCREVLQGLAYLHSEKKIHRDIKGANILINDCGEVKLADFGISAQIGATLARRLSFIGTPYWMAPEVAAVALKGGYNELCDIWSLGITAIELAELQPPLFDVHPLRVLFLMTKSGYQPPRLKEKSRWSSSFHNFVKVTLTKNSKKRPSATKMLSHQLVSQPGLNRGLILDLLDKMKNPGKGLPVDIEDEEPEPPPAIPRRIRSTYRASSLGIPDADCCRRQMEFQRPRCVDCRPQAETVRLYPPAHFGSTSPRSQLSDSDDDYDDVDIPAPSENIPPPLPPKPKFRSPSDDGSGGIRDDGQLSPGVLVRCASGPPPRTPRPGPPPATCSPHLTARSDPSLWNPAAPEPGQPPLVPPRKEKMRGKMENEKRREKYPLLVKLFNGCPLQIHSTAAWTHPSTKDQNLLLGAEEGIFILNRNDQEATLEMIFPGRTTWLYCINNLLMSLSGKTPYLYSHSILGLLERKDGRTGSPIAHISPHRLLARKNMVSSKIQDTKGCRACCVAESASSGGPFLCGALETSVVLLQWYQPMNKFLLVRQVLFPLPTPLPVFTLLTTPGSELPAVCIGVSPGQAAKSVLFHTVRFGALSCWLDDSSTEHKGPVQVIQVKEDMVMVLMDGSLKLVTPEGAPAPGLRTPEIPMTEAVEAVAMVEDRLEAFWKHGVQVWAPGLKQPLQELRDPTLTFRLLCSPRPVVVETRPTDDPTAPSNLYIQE
Protocol: HPK1 protein degradation in mouse pan T cell: the CD3+ T cell population was isolated from spleenocytes of mice by using Pan T cell isolation kit from Miltenyi Biotec (130-095-130) following manufacture's instruction. The isolated T cells were then incubated with a variety of concentrations of compound. After incubation for 18 h, the cells were collected and lysed. The protein concentration was determined by BCA protein assay kit from Thermo (23227). The HPK1 protein level was determined by western blots, using anti-human HPK1 polyclonal antibody from CST (4472). Proteins were loaded into each well of the pre-casting gels and subjected to electrophoretic separation by SDS-PAGE. The protein resolved by SDS-PAGE were transferred to PVDF, blocked by 5% skim milk and probed with anti-human HPK1 antibody or β-actin antibody from CST (3700S), using following standard western blotting procedure.

Dmax (HPK1 protein [1]) [%]	IC50 (HPK1 p-SLP-76) [nM]	IC50 (HPK1 protein [2]) [nM]	Dmax (HPK1 protein [3]) [%]	SMILES
96	300 to 3000	10 to 100	96	CCc1c[nH]c2ncc(-c3cccc(N4CCN(CCCN5CCN(c6cc7c(cc6F)C(=O)N(C6CCC(=O)NC6=O)C7=O)CC5)CC4=O)c3)c(Cl)c12 (centres unmarked) [Example 25]
30		10 to 100	50	CCc1c[nH]c2ncc(-c3cc(N4CCN(C(=O)CN(C)C5CCN(c6cc7c(cc6F)C(=O)N(C6CCC(=O)NC6=O)C7=O)CC5)CC4=O)ccc3F)c(Cl)c12 (centres unmarked) [Example 44]
78		10 to 100	90	O=C1CCC(N2C(=O)c3cc(F)c(N4CCC(CCN5CCN(c6cccc(-c7cnc8[nH]cc(C9CC9)c8c7Cl)c6)C(=O)C5)CC4)cc3C2=O)C(=O)N1 (centres unmarked) [Example 45]
96		10 to 100	95	O=C1CCC(N2C(=O)c3cc(F)c(N4CCN(C5CC(CN6CCN(c7cccc(-c8cnc9[nH]cc(C%10CC%10)c9c8Cl)c7)C(=O)C6)C5)CC4)cc3C2=O)C(=O)N1 (centres unmarked) [Example 51, 5-(4-(3-((4-(3-(4-chloro-3-cyclopropyl-1H-pyrrolo[2,3-b]pyridin-5-yl)phenyl)-3-oxopiperazin-1-yl)methyl)cyclobutyl)piperazin-1-yl)-2-(2,6-dioxopiperidin-3-yl)-6-fluoroisoindoline-1,3-dione]
86		10 to 100	95	O=C1CCC(N2C(=O)c3cc(F)c(N4CCN(CCCN5CCN(c6cccc(-c7cnc8[nH]cc(C9CC9)c8c7Cl)n6)C(=O)C5)CC4)cc3C2=O)C(=O)N1 (centres unmarked) [Example 53, 5-(4-(3-(4-(6-(4-chloro-3-cyclopropyl-1H-pyrrolo[2,3-b]pyridin-5-yl)pyridin-2-yl)-3-oxopiperazin-1-yl)propyl)piperazin-1-yl)-2-(2,6-dioxopiperidin-3-yl)-6-fluoroisoindoline-1,3-dione]
74		10 to 100	95	CCc1c[nH]c2ncc(-c3cccc(N4CCN(CCCN5CCN(c6ccc7c(N8CCC(=O)NC8=O)cccc7c6)CC5)CC4=O)c3)c(Cl)c12 [Example 76, 1-(6-(4-(3-(4-(3-(4-chloro-3-ethyl-1H-pyrrolo[2,3-b]pyridin-5-yl)phenyl)-3-oxopiperazin-1-yl)propyl)piperazin-1-yl)naphthalen-1-yl)dihydropyrimidine-2,4 (1H,3H)-dione]
93		10 to 100	90	CCc1c[nH]c2ncc(-c3cccc(N4CCN(S(=O)(=O)CCN5CCN(c6ccc7c(c6)C(=O)N(C6CCC(=O)NC6=O)C7=O)CC5)CC4=O)c3)c(Cl)c12 (centres unmarked) [Example 100]

Second part, the compound before the results:

SMILES	Dmax (HPK1 protein [1]) [%]	IC50 (HPK1 p-SLP-76) [nM]	IC50 (HPK1 protein [2]) [nM]	Dmax (HPK1 protein [3]) [%]
CCc1c[nH]c2ncc(-c3cccc(N4CCN(C(=O)COC5CCN(c6ccc7c(c6)C(=O)N(C6CCC(=O)NC6=O)C7=O)CC5)CC4=O)c3)c(Cl)c12 (centres unmarked) [Example 16, 5-(4-(2-(4-(3-(4-chloro-3-ethyl-1H-pyrrolo[2,3-b]pyridin-5-yl)phenyl)-3-oxopiperazin-1-yl)-2-oxoethoxy)piperidin-1-yl)-2-(2,6-dioxopiperidin-3-yl)isoindoline-1,3-dione]	96	≤ 300	≤ 10	80
CCc1c[nH]c2ncc(-c3cccc(N4CCN(CCN5CCN(c6ccc7c(c6)C(=O)N(C6CCC(=O)NC6=O)C7=O)CC5)CC4=O)c3)c(Cl)c12 (centres unmarked) [Example 28, 5-(4-(2-(4-(3-(4-chloro-3-ethyl-1H-pyrrolo[2,3-b]pyridin-5-yl)phenyl)-3-oxopiperazin-1-yl)ethyl)piperazin-1-yl)-2-(2,6-dioxopiperidin-3-yl)isoindoline-1,3-dione]	80	300 to 3000	10 to 100	
O=C1CCC(N2Cc3ccc(N4CCC(OCC(=O)N5CCN(c6cccc(-c7cnc8[nH]cc(C9CC9)c8c7Cl)c6)C(=O)C5)CC4)cc3C2=O)C(=O)N1 (centres unmarked) [Example 46]	51		≤ 10	90
O=C1CCC(N2Cc3cc(N4CCC(OCC(=O)N5CCN(c6cccc(-c7cnc8[nH]cc(C9CC9)c8c7Cl)c6)C(=O)C5)CC4)ccc3C2=O)C(=O)N1 (centres unmarked) [Example 47]	85		≤ 10	95
CC(OC1CCN(c2cc3c(cc2F)C(=O)N(C2CCC(=O)NC2=O)C3=O)CC1)C(=O)N1CCN(c2cccc(-c3cnc4[nH]cc(C5CC5)c4c3Cl)c2)C(=O)C1 (centres unmarked) [Example 48]	57		10 to 100	95
O=C1CCC(N2C(=O)c3cc(F)c(N4CCC5(CC4)CN(CCN4CCN(c6cccc(-c7cnc8[nH]cc(C9CC9)c8c7Cl)c6)C(=O)C4)C5)cc3C2=O)C(=O)N1 (centres unmarked) [Example 52]	31		10 to 100	95
O=C1CCC(N2C(=O)c3cc(F)c(N4CCC(CCN5CCN(c6cccc(-c7cnc8[nH]cc(CC(F)F)c8c7Cl)c6)C(=O)C5)CC4)cc3C2=O)C(=O)N1 (centres unmarked) [Example 55]	55		100 to 1000	95
O=C1CCN(c2cccc3cc(N4CCN(CCCN5CCN(c6cccc(-c7cnc8[nH]cc(C9CC9)c8c7Cl)n6)C(=O)C5)CC4)ccc23)C(=O)N1 [Example 69, 1-(6-(4-(3-(4-(6-(4-chloro-3-cyclopropyl-1H-pyrrolo[2,3-b]pyridin-5-yl)pyridin-2-yl)-3-oxopiperazin-1-yl)propyl)piperazin-1-yl)naphthalen-1-yl)dihydropyrimidine-2,4 (1H,3H)-dione]	74	300 to 3000	≤ 10	
O=C1CCN(c2cccc3cc(N4CCC(OCCN5CCN(c6cccc(-c7cnc8[nH]cc(C9CC9)c8c7Cl)n6)C(=O)C5)CC4)ccc23)C(=O)N1 [Example 72]	30	300 to 3000	10 to 100	
CCc1c[nH]c2ncc(-c3cccc(N4CCN(CCCN5CC=C(c6ccc7c(N8CCC(=O)NC8=O)nn(C)c7c6)CC5)CC4=O)c3)c(Cl)c12 [Example 74, 1-(6-(1-(3-(4-(3-(4-chloro-3-ethyl-1H-pyrrolo[2,3-b]pyridin-5-yl)phenyl)-3-oxopiperazin-1-yl)propyl)-1,2,3,6-tetrahydropyridin-4-yl)-1-methyl-1H-indazol-3-yl)dihydropyrimidine-2,4 (1H,3H)-dione]	86		≤ 10	91

Reference: US20240368159A1, “HPK1 DEGRADERS, COMPOSITIONS COMPRISING THE HPK1 DEGRADER, AND METHODS OF USING THE SAME” (BIOFRONT LTD, priority 2021, published 2024)
